Measurements from ChEMBL document CHEMBL1129553, “Synthesis and pharmacology of highly selective carboxy and phosphono isoxazole amino acid AMPA receptor antagonists” (J Med Chem, 1996).

Columns and labels:
Glutamate NMDA receptor = test: In vitro inhibition of [3H]CPP binding to NMDA receptor.; format: protein-complex assay
[1] = molecular target: Glutamate receptor ionotropic, kainate; test: In vitro inhibition of [3H]KAIN binding to Ionotropic glutamate receptor kainate.; format: protein-complex assay
Rattus norvegicus = organism: Rattus norvegicus; test: Inhibitory activity against antagonism of AMPA induced responses in rat cortical slices; format: functional
[2] = molecular target: T1, Glutamate receptor ionotropic, AMPA (Rattus norvegicus, UniProt P19490+P19491+P19492+P19493); test: In vitro inhibition of [3H]CNQX binding to Ionotropic glutamate receptor AMPA.; format: protein-complex assay
[3] = molecular target: T1, Glutamate receptor ionotropic, AMPA; test: In vitro inhibition of [3H]AMPA binding to Ionotropic glutamate receptor AMPA.; format: protein-complex assay
[4] = molecular target: T1, Glutamate receptor ionotropic, AMPA; test: Inhibition of AMPA induced electrophysiological responses in rat cortical slices.; format: functional

Row | IC50 (Glutamate NMDA receptor) | IC50 [1] | IC50 (Rattus norvegicus) | IC50 [2] | IC50 [3] | IC50 [4] | Ki [4] | SMILES
1 | > 100 µM | > 100 µM | – | – | – | – | – | CC(C)(C)c1onc(OCP(=O)(O)O)c1CC(N)C(=O)O (stereo unspecified)
2 | – | – | 320 µM | 8 µM | – | – | – | Cc1onc(OCC(=O)O)c1CC(N)C(=O)O (stereo unspecified)
3 | > 100 µM | > 100 µM | – | > 100 µM | > 100 µM | > 1000 µM | – | NC(Cc1cc(OCC(=O)O)no1)C(=O)O (stereo unspecified)
4 | > 100 µM | > 100 µM | – | > 100 µM | > 100 µM | > 1000 µM | – | NC(Cc1c(OCC(=O)O)noc1-c1cccs1)C(=O)O (stereo unspecified)
5 | > 100 µM | > 100 µM | – | 63 µM | > 100 µM | > 1000 µM | – | CCCC(CCC)c1onc(OCC(=O)O)c1CC(N)C(=O)O (stereo unspecified)
6 | > 100 µM | > 100 µM | – | 12 µM | 33 µM | 150 µM | – | CC(C)(C)c1onc(OCC(=O)O)c1CC(N)C(=O)O (stereo unspecified)
7 | > 100 µM | > 100 µM | – | 18 µM | > 100 µM | 140 µM | – | CCCCc1onc(OCP(=O)(O)O)c1CC(N)C(=O)O (stereo unspecified)
8 | > 100 µM | > 100 µM | – | > 100 µM | > 100 µM | > 1000 µM | – | NC(Cc1cc(OCP(=O)(O)O)no1)C(=O)O (stereo unspecified)
9 | > 100 µM | > 100 µM | – | > 100 µM | > 100 µM | > 1000 µM | – | NC(Cc1c(OCP(=O)(O)O)noc1-c1ccccc1)C(=O)O (stereo unspecified)
10 | > 100 µM | > 100 µM | – | 87 µM | > 100 µM | > 1000 µM | – | CCCCc1onc(OCC(=O)O)c1CC(N)C(=O)O (stereo unspecified)
11 | > 100 µM | > 100 µM | – | 35 µM | > 100 µM | > 1000 µM | – | CC(C)(C)Cc1onc(OCP(=O)(O)O)c1CC(N)C(=O)O (stereo unspecified)
12 | – | > 100 µM | – | – | > 100 µM | 350 µM | – | CCCC(CCC)c1onc(OCP(=O)(O)O)c1CC(N)C(=O)O (stereo unspecified)
13 | > 100 µM | > 100 µM | – | > 100 µM | > 100 µM | 360 µM | – | NC(Cc1c(OCP(=O)(O)O)noc1-c1cccs1)C(=O)O (stereo unspecified)
14 | 0.05 µM | – | – | – | > 100 µM | – | 1.6 µM | O=C(O)[C@H]1CN(CCCP(=O)(O)O)CCN1
15 | 22 µM | > 100 µM | – | > 100 µM | > 100 µM | – | – | O=C(O)C1Cc2c(OCP(=O)(O)O)noc2CN1 (stereo unspecified)
16 | > 100 µM | > 100 µM | – | 6.9 µM | 31 µM | 60 µM | – | Cc1onc(OCP(=O)(O)O)c1CC(N)C(=O)O (stereo unspecified)
17 | > 100 µM | > 100 µM | – | > 100 µM | > 100 µM | > 1000 µM | – | NC(Cc1c(OCC(=O)O)noc1-c1ccccc1)C(=O)O (stereo unspecified)
18 | > 100 µM | > 100 µM | – | > 100 µM | > 100 µM | > 1000 µM | – | CC(C)(C)Cc1onc(OCC(=O)O)c1CC(N)C(=O)O (stereo unspecified)
19 | 25 µM | 1.5 µM | – | – | – | – | – | N#Cc1cc2c(cc1[N+](=O)[O-])=NC(=O)C(=O)N=2
